# Data taken from US20230391826A1, “COMPOSITIONS AND METHODS FOR TREATING DISEASES” (Sanford Burnham Prebys Medical Discovery Institute, priority 2020, published 2023).
# Legend:
# [1] = molecular target: T1, EphA2 (Homo sapiens, UniProt P29317, L223R/L254R/V255R); assay: Quantitative FRET of EphA2 oligomerization in transiently transfected HEK293 cells; type: cell-based; conditions: swollen HEK293 cells
# T1 construct: expressed in transfected cells; host or cells: HEK293 (HEK293T), transient transfection
# T1 sequence (P29317 24-976 L223R/L254R/V255R): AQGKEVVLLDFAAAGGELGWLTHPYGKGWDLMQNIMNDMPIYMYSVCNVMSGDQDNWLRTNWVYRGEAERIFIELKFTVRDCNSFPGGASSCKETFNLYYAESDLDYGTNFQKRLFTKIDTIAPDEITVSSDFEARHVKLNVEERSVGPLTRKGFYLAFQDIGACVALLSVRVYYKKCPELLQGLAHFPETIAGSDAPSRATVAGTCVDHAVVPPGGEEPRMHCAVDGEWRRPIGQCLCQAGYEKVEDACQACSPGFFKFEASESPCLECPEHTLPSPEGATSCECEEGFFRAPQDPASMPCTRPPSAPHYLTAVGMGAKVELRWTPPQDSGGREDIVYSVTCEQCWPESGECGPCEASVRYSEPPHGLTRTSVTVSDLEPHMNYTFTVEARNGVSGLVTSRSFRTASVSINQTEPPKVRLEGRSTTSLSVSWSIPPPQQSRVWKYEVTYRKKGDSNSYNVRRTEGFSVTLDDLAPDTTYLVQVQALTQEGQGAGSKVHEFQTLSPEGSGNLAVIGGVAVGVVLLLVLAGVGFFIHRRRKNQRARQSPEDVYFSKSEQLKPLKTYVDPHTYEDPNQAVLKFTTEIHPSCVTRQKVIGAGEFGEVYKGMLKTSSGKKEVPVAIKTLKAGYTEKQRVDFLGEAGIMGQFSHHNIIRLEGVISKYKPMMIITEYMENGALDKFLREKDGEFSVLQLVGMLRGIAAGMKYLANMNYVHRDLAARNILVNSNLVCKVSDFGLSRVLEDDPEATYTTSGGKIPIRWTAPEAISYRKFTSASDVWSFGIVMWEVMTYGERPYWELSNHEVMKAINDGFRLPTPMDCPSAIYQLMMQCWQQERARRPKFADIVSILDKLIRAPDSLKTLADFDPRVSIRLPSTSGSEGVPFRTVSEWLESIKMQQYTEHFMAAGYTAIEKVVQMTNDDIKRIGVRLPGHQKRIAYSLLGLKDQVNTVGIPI
# From the text: (§1) FIG. 4A-4E illustrates an example where dimers with different configurations induce EphA2 oligomerization and patching on the cell surface. (FIG. 4A-4D) Oligomerization curves comparing EphA2 WT and the G131Y and L223R/L254R/[…] interface mutants transiently expressed in HEK293 cells and treated with saturating concentrations of C-terminally linked dimer (2) or N-terminally linked dimer (5). The curves were obtained by fitting quantitative FRET data to monomer-oligomer models. […] Curves for higher order oligomerization are steeper than dimerization curves. (FIG. 4E) Two-photon integrated fluorescence images of HEK293 cells expressing EphA2-EYFP and EphA2-mTURQ and under hypo-osmotic conditions. The plasma membrane regions in the rectangular yellow outlines are enlarged in the insets at the bottom of each panel. The dimeric peptides induce patching of EphA2 WT on the plasma membrane and dimer (5) also induces patching of the EphA2 L223R/L254R/V255R mutant, while in the other cases the EphA2 interface mutations disrupt patching. The scale bar represents 10 μm for the main panels and 4 μm for the insets. # indicates the presence of EphA2 patches in the plasma membrane.
# (§2) FIG. 12 illustrates an example of FRET efficiencies versus total receptor concentrations. […]
# (§3) To examine the effects of dimeric peptide ligands on EphA2 oligomerization (including dimerization and higher order clustering), quantitative FRET experiments were performed in live cells. […] FRET is then measured in hundreds of individual cells with different EphA2 expression levels (FIG. 12), and the data are combined to yield average oligomeric fractions at different EphA2 concentrations (FIG. 4A-4D). […]
# (§4) To obtain the data points for oligomerization curves (FIG. 12), the concentration of EphA2 in each small region of plasma membrane in which FRET efficiency was measured. Conversion of fluorescence intensity into accurate 2-dimensional EphA2 concentration requires a reversible hypo-osmotic treatment to swell the cells and smooth the wrinkled topology of their plasma membrane (FIG. 4E). […]
# [2] = molecular target: T2, EphA2 (Homo sapiens, UniProt P29317, G131Y); assay: as above; type: cell-based
# T2 construct: expressed in transfected cells; host or cells: HEK293 (HEK293T), transient transfection
# T2 sequence (P29317 24-976 G131Y): as the sequence (P29317 24-976 L223R/L254R/V255R) above, with G108Y, R200L, R231L, R232V counted along it
# From the text: as §1, §2, §3, §4
smiles,measurement,setting,value
"CC(C)C[C@H](NC(=O)[C@H](Cc1c[nH]c2ccccc12)NC(=O)[C@H](C)NC(=O)CNC(=O)[C@@H](N)CSSC[C@H](N)C(=O)NCC(=O)N[C@@H](C)C(=O)N[C@@H](Cc1c[nH]c2ccccc12)C(=O)N[C@@H](CC(C)C)C(=O)N[C@@H](C)C(=O)N[C@@H](Cc1ccc(O)cc1)C(=O)N1CCC[C@H]1C(=O)N[C@@H](CC(=O)O)C(=O)N[C@@H](CO)C(=O)N[C@H](C(=O)N1CCC[C@H]1C(=O)N[C@@H](Cc1ccc(O)cc1)C(=O)N[C@@H](CCCNC(=N)N)C(=O)N1CCC[C@H]1C(=O)N[C@@H](CCCCN)C(=O)O)C(C)C)C(=O)N[C@@H](C)C(=O)N[C@@H](Cc1ccc(O)cc1)C(=O)N1CCC[C@H]1C(=O)N[C@@H](CC(=O)O)C(=O)N[C@@H](CO)C(=O)N[C@H](C(=O)N1CCC[C@H]1C(=O)N[C@@H](Cc1ccc(O)cc1)C(=O)N[C@@H](CCCNC(=N)N)C(=O)N1CCC[C@H]1C(=O)N[C@@H](CCCCN)C(=O)O)C(C)C [compound 5, CGA-WLA-YRPK dimer (N-ter)]","EphA2 patches on the plasma membrane, EphA2 L223R/L254R/V255R mutant",[1],causes patches
same,"best-fit FRET oligomerization model, EphA2 G131Y mutant","[2]; saturating peptide, HEK293 cells",dimer model
same,"EphA2 patches on the plasma membrane, EphA2 G131Y mutant",[2]; swollen HEK293 cells,not
